Source: paper PMC8346995, “Synthesis, Characterization, In Vitro Anticancer Potentiality, and Antimicrobial Activities of Novel Peptide–Glycyrrhetinic-Acid-Based Derivatives” (Molecules, 2021)
Converted amounts (≈) assume the structure as drawn. Residues, ends and D or L forms follow the SMILES beside them. *: point of attachment. X1 = CC1(C(=O)*)CCC2(C)CCC3(C)C(=CC(=O)C4C5(C)CCC(O)C(C)(C)C5CCC43C)C2C1

Legend:
[1] = test system: human breast MCF-7 cancer cell line; assay: MTT cytotoxicity assay, breast MCF-7 cancer cell line; format: cell-based; conditions: for IC50: Homo sapiens, MCF7, MTT, mean of three replicates, read-out: IC50 (µg/mL) ± SD MCF-7; for cytotoxicity percentage: MCF-7, 10 µg/mL
Protocol: (§1) Accordingly, all the newly synthesized GA-based peptides except 1 and 6 were screened for their cytotoxicity against three different human cancer cell lines: MCF-7, HCT-116, and HepG-2 cell lines at different concentrations (10, 5, 2.5, 1.25, and 0.625 µg/mL).
(§2) Human breast MCF-7, colon HCT-116, and liver HepG-2 carcinoma cell line were taken from Vacsera (Giza, Egypt). The culture was retained in RPMI 1640 medium with 1% antibiotic–antimycotic mixture (25 μg/mL amphotericin B, 10,000 μg/mL streptomycin sulfate, and 10,000 U/mL potassium penicillin), 1% L-glutamine, and complemented by 10% heat inactivated fetal bovine serum. […] This experiment was carried out according to the reported MTT assay method, and the absorbance was measured at 595 nm.

Candida albicans = assay: Well diffusion assay, Candida albicans; format: cell-based
Protocol: (§3) The newly synthesized peptides 1–8 (compound 6 was not tested) was evaluated for their antimicrobial activity of against three pathogenic Gram-positive bacteria (Staphylococcus aureus ATCC25923, Streptococcus pneumoniaRCMB 010010, and Micrococcus Luteus), three pathogenic Gram-negative bacteria viz. Escherichia coli ATCC25922, Pseudomonas aeruginosa ATCC7853, and Proteus vulgaris RCMB 010085, and the yeast Candida albicans using the well diffusion method. […] The obtained data were documented for each derivative as the average diameter of the inhibition zones (IZ) in mm for the bacterial or the yeast growth around the discs (Table 2). […] Although Micrococcus Luteus bacteria is a normal commensal of human skin and the upper respiratory tract, it acts as an opportunistic pathogen and has been associated with various diseases including meningitis, septic arthritis, and endocarditis. […] Antimicrobial activity of the tested chemical peptides was determined by the well diffusion method for pathogenic bacteria having Gram-positive bacteria (Staphylococcus aureus ATCC25923, Streptococcus pneumonia, and Micrococcus luteus) and Gram-negative bacteria (Escherichia coli ATCC25922, Pseudomonas aeruginosa ATCC7853, and Proteus sp.) and Candida albicans as human pathogen yeast using the well diffusion method.

[2] = test system: human colon HCT-116 cancer cell line; assay: MTT cytotoxicity assay, colon HCT-116 cancer cell line; conditions: for IC50: Homo sapiens, HCT-116, read-out: IC50 (µg/mL) ± SD HCT-116
Protocol: as §1, §2

[3] = test system: Escherichia coli ATCC25922; assay: Well diffusion assay, Escherichia coli; format: cell-based
Protocol: as §3

[4] = test system: Pseudomonas aeruginosa ATCC7853; assay: Well diffusion assay, Pseudomonas aeruginosa; format: cell-based
Protocol: as §3

[5] = test system: human normal skin fibroblasts cell line BJ-1; assay: Cytotoxicity against normal skin fibroblasts BJ-1; format: cell-based; conditions: BJ-1, 10 µg/mL
Protocol: The frequency and severity of side effects to normal cells at therapeutic levels is one of the most critical factors that distinguish different anticancer drugs from each other. Accordingly, the GA peptides 1–8 were furthermore screened for their cytotoxicity at 10 µg/mL against the human normal skin fibroblasts cell line BJ-1 to determine their safety upon normal cells (Figure 4).

[6] = test system: Proteus vulgaris RCMB 010085; assay: Well diffusion assay, Proteus vulgaris; format: cell-based; conditions: Proteus vulgaris RCMB 010085, well diffusion
Protocol: as §3

[7] = test system: Staphylococcus aureus ATCC25923; assay: Well diffusion assay, Staphylococcus aureus; format: cell-based
Protocol: as §3

[8] = test system: Streptococcus pneumonia RCMB 010010; assay: Well diffusion assay, Streptococcus pneumonia; format: cell-based; conditions: Streptococcus pneumonia RCMB 010010, well diffusion
Protocol: as §3

Micrococcus Luteus = assay: Well diffusion assay, Micrococcus Luteus; format: cell-based
Protocol: as §3

MCF-7 cells = assay: DNA fragmentation through DPA assay in MCF-7 cells; format: cell-based, human; conditions: treated MCF-7 cells; untreated 7.8%
Protocol: Caspases are a family of cysteine proteases that are responsible for launching the programmed cell death (apoptosis). […] Cell shrinkage, chromatin condensation, and DNA fragmentation are all apoptosis events, which need the involvement of caspase-7and caspase-3 [48, 54, 56].
Assessment of DNA fragmentation of the cells was done, as described by the reported method. Briefly, the cells were lysed for 15 min on ice with 0.5% (v/v) Triton X-100, 20 mM EDTA, and […] Tris (pH 8.0). Then, the cells were centrifuged to separate intact chromatin from DNA fragments for 20 min, at 27,000 Xg. Measurement of the amount of DNA was done using a diphenylamine reagent, and the optical density was measured at 600 nm.

[9] = test system: human liver cancer (HepG-2) cell line; assay: MTT cytotoxicity assay, liver HepG-2 cancer cell line; format: cell-based
Protocol: as §1, §2

SMILES | IC50 [1] [µg/mL] | Diameter of Inhibition Zone (mm) (Candida albicans) | cytotoxicity percentage ([2]; HCT-116, 10 µg/mL) | IC50 [2] [µg/mL] | Diameter of Inhibition Zone (mm) [3] [mm] | Diameter of Inhibition Zone (mm) [4] [mm] | cytotoxic effect on normal cells BJ-1 [5] [%] | Diameter of Inhibition Zone (mm) [6] [mm] | Diameter of Inhibition Zone (mm) [7] [mm] | Diameter of Inhibition Zone (mm) [8] [mm] | melting point [°C] | Diameter of Inhibition Zone (mm) (Micrococcus Luteus) | cytotoxicity percentage [1] | percentage of DNA fragmentation (MCF-7 cells) [%] | cytotoxicity percentage ([2]; human, 10 µg/mL) [%] | cytotoxicity percentage ([9]; HepG-2, 10 µg/mL) [%] | IC50 ([9]; Homo sapiens, HepG2, MTT, mean of three replicates, read-out: IC50 (µg/mL) ± SD HepG-2) [µg/mL]
CC1(C(=O)NCC(=O)NCC(=O)O)CCC2(C)CCC3(C)C(=CC(=O)C4C5(C)CCC(O)C(C)(C)C5CCC43C)C2C1 (stereo not shown) [Compound 3, 2-(2-(10-Hydroxy-2,4a,6a,6b,9,9,12a-heptamethyl-13-oxo-1,2,3,4,4a,5,6,6a,6b,7,8,8a,9,10,11,12,12a,12b,13,14b-icosahydropicene-2-carboxamido)acetamido)acetic acid] | 5.1 ± 0.7 (≈ 8.72 µM) | 12 ± 0.23 | 97.66% | 7.4 ± 0.4 (≈ 12.7 µM) | 16 ± 0.31 | 15 ± 0.18 | 2 | 17 ± 0.17 | 17 ± 0.32 | 17 ± 0.21 | 207 to 209 | 30 ± 0.25 |  |  |  |  | 
COC(=O)C(CC(C)C)NC(=O)CNC(=O)CNC(=O)C1(C)CCC2(C)CCC3(C)C(=CC(=O)C4C5(C)CCC(O)C(C)(C)C5CCC43C)C2C1 (stereo not shown) [Compound 6, Methyl 2-(2-(2-(10-Hydroxy-2,4a,6a,6b,9,9,12a-heptamethyl-13-oxo-1,2,3,4,4a,5,6,6a,6b,7,8,8a,9,10,11,12,12a,12b,13,14b-icosahydropicene-2-carboxamido)acetamido)acetamido)-4-methylpentanoate] |  |  | weak effect |  |  |  |  |  |  |  | 170 to 172 |  | weak cytotoxic effect |  |  |  | 
CCCC(NC(=O)C(CC(C)C)NC(=O)OC(C)(C)C)C(=O)OC1CCC2(C)C(CCC3(C)C2C(=O)C=C2C4CC(C)(C(=O)NCC(=O)NCC(=O)OCC)CCC4(C)CCC23C)C1(C)C (stereo not shown) [Compound 2, 11-(2-(2-Ethoxy-2-oxoethylamino)-2-oxoethylcarbamoyl)-4,4,6a,6b,8a,11,14b-heptamethyl-14-oxo-1,2,3,4,4a,5,6,6a,6b,7,8,8a,9,10,11,12,12a,14,14a,14b-icosahydropicen-3-yl 2-(2-(tert-Butoxycarbonylamino)-4-methylpentanamido)pentanoate] | 7.7 ± 1.3 (≈ 8.32 µM) |  | 92.63% | 70.3 ± 0.9 (≈ 76 µM) | 18 ± 0.14 | 15 ± 0.25 |  |  | 17 ± 0.11 | 12 ± 0.82 | 169 to 171 | 30 ± 0.13 |  |  |  |  | 
CNC(C)C1CCC(N)C(OC2C(N)CC(N)C(OC3OCC(C)(O)C(NC)C3O)C2O)O1 (stereo not shown) [GM, gentamicin, reference compound] |  |  |  |  | 26.3 ± 0.15 | 24.41 ± 0.18 |  | 20.0 ± 0.30 | 25.4 ± 0.18 | 27.2 ± 0.80 |  | 24.4 ± 0.72 |  |  |  |  | 
COc1cc2c(c(OC)c1OC)-c1ccc(OC)c(=O)cc1[C@@H](NC(C)=O)CC2 [colchicine, reference compound] |  |  |  |  |  |  |  |  |  |  |  |  |  | 40.7 |  |  | 
CCOC(=O)CNC(=O)CNC(=O)CNC(=O)CNC(=O)C1(C)CCC2(C)CCC3(C)C(=CC(=O)C4C5(C)CCC(O)C(C)(C)C5CCC43C)C2C1 (stereo not shown) [Compound 4, Ethyl 1-(10-Hydroxy-2,4a,6a,6b,9,9,12a-heptamethyl-13-oxo-1,2,3,4,4a,5,6,6a,6b,7,8,8a,9,10,11,12,12a,12b,13,14b-icosahydropicen-2-yl)-1,4,7,10-tetraoxo-2,5,8,11-tetraazatridecan-13-oate] (X1-GGGG-OEt) | 6.1 ± 0.4 (≈ 8.39 µM) | 15 ± 0.12 |  | 73 ± 1.4 (≈ 100 µM) | 13 ± 0.15 | 13 ± 0.16 |  | 12 ± 0.23 | 10 ± 0.13 | 11 ± 0.24 | 130 to 133 | 29 ± 0.13 |  |  | 84.80 |  | 
CC(=O)N1CCN(c2ccc(OCC3COC(Cn4ccnc4)(c4ccc(Cl)cc4Cl)O3)cc2)CC1 (stereo not shown) [KC, ketoconazole, reference compound] |  | 22.8 ± 0.10 |  |  |  |  |  |  |  |  |  |  |  |  |  |  | 
COC(=O)C(CC(C)C)NC(=O)CNC(=O)CNC(=O)C1(C)CCC2(C)CCC3(C)C(=CC(=O)C4C5(C)CCC(OC(=O)CNC(=O)CNC(=O)OC(C)(C)C)C(C)(C)C5CCC43C)C2C1 (stereo not shown) [Compound 8, Methyl 2-(2-(2-(10-(2-(2-(Tert-butoxycarbonylamino)acetamido)acetoxy)-2,4a,6a,6b,9,9,12a-heptamethyl-13-oxo-1,2,3,4,4a,5,6,6a,6b,7,8,8a,9,10,11,12,12a,12b,13,14b-icosahydropicene-2-carboxamido)acetamido)acetamido)-4-methylpentanoate] | 6.9 ± 1.1 (≈ 7.45 µM) |  | 97.10% | 60.7 ± 0.6 (≈ 65.5 µM) | 15 ± 0.16 | 14 ± 0.16 |  |  | 13 ± 0.24 | 12 ± 0.22 |  | 30 ± 0.17 |  |  |  |  | 
CCOC(=O)CNC(=O)CNC(=O)C1(C)CCC2(C)CCC3(C)C(=CC(=O)C4C5(C)CCC(O)C(C)(C)C5CCC43C)C2C1 (stereo not shown) [Compound 1, Ethyl 2-(2-(10-Hydroxy-2,4a,6a,6b,9,9,12a-heptamethyl-13-oxo-1,2,3,4,4a,5,6,6a,6b,7,8,8a,9,10,11,12,12a,12b,13,14b-icosahydropicene-2-carboxamido)acetamido)acetate] |  |  | weak effect |  | 20 ± 0.25 | 18 ± 0.15 | 7 |  | 15 ± 0.16 | 15 ± 0.16 | 160 to 162 | 30 ± 0.21 | 65.3% |  |  |  | 
CC(C)CC(NC(=O)CNC(=O)CNC(=O)C1(C)CCC2(C)CCC3(C)C(=CC(=O)C4C5(C)CCC(O)C(C)(C)C5CCC43C)C2C1)C(=O)O (stereo not shown) [Compound 7, 2-(2-(2-(10-Hydroxy-2,4a, 6a, 6b, 9,9, 12a-heptamethyl-13-oxo-1,2,3,4,4a, 5,6,6a, 6b, 7,8,8a, 9, 10, 11, 12, 12a, 12b, 13, 14b-icosahydropicene-2-carboxamido)acetamido)acetamido)-4-methylpentanoic Acid] | 3.7 ± 0.2 (≈ 5.3 µM) |  | 98.06% | 3 ± 1.1 (≈ 4.3 µM) | 15 ± 0.21 | 13 ± 0.14 |  | 12 ± 0.14 |  |  | 210 to 212 | 30 ± 0.11 |  |  |  | 96.76 | 3.3 ± 0.1 (≈ 4.73 µM)
